Like-named read-outs stand apart in the source and are kept apart here.
What was measured:
viruses = details: New York Blood Center (Ben-Hur); cited from earlier work
L5178Y cells = assay: Induction of apoptosis (DNA fragmentation) in L5178Y-R cells (Table 6); type: cell-based, mouse; details: for induction of apoptosis: 1 μM at a fluence of 30 kJ/m^2
Procedure, shortened: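 Exponentially growing mouse lymphoma L5178Y-R cells loaded 18 hours with phthalocyanine at various concentrations, then irradiated with >600 nm red light (up to 30 kJ/m^2, ~74 W/m^2). DNA isolated 2 hours post-PDT, run on 1.5% agarose; value is minimum PDT dose (concentration × fluence) giving visible DNA ladder.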

V79 cells [1] = assay: Clonogenicity, killing of V79 cells using photodynamic therapy (Table 3); type: cell-based, Chinese hamster
Procedure, shortened: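 V79 Chinese hamster lung fibroblasts were loaded with 0.5 or 1.0 μM phthalocyanine, then about 18 h later irradiated with increasing doses of 675 nm broad-band red light (tungsten-halogen lamp, 600 nm high-pass filter). Recorded value is the light dose killing 90% of cells, or, failing that, the maximum kill (% survival) and its dose.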

V79 cells [2] = assay: Uptake of additional phthalocyanines into V79 cells (Table 2); details: for Uptake into V79 cells: 18 hours
Experimental: (§3) V79 cells Chinese hamster lung fibroblasts were cultured using the cell culture methods described above. […] When the filters were dry, the phthalocyanines were extracted into ethanol and the absorption determined at the peak wavelength, usually 668 nm.

[3] = tested on: Chinese hamster V79-379 cells; assay: Growth delay of V79 cultures after red light (Table 1); type: cell-based; details: for Growth Delay, efficiency relative to 1 μM AlPcCl: 18 h, 12 kJ/m^2 red light; for inhibition of V79 culture growth (in words): red light 12 kJ/m^2, three day period
Experimental: (§1) Chinese hamster V79-379 lung fibroblasts were grown in monolayer culture in McCoy's 5A medium (Gibco Laboratories, Grand Island, N.Y.) augmented with 10% calf serum and buffered with 20 mM HEPES (pH 7.4).
(§2) The cells were treated with 1 μM AlPcCl (from Eastman Kodak, Rochester, N.Y.) or with phthalocyanine compositions I-VI (0.5-1.0 μM final concentration in the medium) for 18 hours by adding the appropriate volume of a 1.0 mM stock solution in dimethylformamide (DMF) to the culture medium. The growth medium was replaced with 4 ml Hank's balanced salt solution (HBSS), and the cells were irradiated. The light source was a 500 W tungsten-halogen lamp located approximately 29 inches below the surface of a glass exposure tray. The visible light administered to the cells was filtered to allow passage of only that portion of the visible spectrum above 600 nm (Lee Primary red filter No. 106, Vincent Lighting, Cleveland, Ohio). The fluence rate was approximately 0.074 kJ/m^2 /s at the level of the cell monolayer.
At the time of light exposure, there were approximately 1.5×10^5 cells per 25 cm^2 flask. Following irradiation, the HBSS was replaced by 10 ml of fresh complete growth medium, and the cultures were returned to the 37° C. incubator. At various times before and after irradiation, duplicate cultures were trypsinized and counted. Controls included untreated cells and cells treated with light alone or drug alone. In addition, in each experiment, the drug to be tested was compared to a standard treatment, i.e. 1 μM AlPcCl for 18 hours followed by 12 kJ/m^2 light.
The inhibition of V79 culture growth was measured during a three day period following red light irradiation (12 kJ/m^2) of phthalocyanine-pretreated cells. With each of the active compounds, as well as with AlPcCl, there was an initial decrease in cell density, as dead cells became detached from the monolayer. Thereafter, the cell number per flask increased, as living cells grew and divided. The time for the cell density to recover to the level at the time of light exposure was considered the growth delay. […] The ratio of the growth delay for the test photosensitizer and the growth delay for AlPcCl measured in the same experiment is recorded in Table 1.

[4] = tested on: Chinese hamster V79-379 cells; assay: Clonogenic cell survival / photocytotoxicity in V79 cells (Table 1, FIG. 1, FIG. 2); type: cell-based
Experimental: FIG. 1 is a graph illustrating the photodynamic efficacy of the various compositions of the present invention in comparison to AlPcCl. The phthalocyanine composition compounds of the present invention were tested for their photodynamic efficiency against Chinese hamster fibroblast V79 cells by colony formation. Monolayer cultures were treated with the indicated phthalocyanine composition for 18 hours, irradiated with various fluences of red light, and immediately trypsinized and replated at appropriate aliquots in triplicate. Colonies of at least 50 cells were counted after 7-10 days. The plating efficiency of the untreated cells was approximately 90%.
In this regard, in FIG. 2 the data of FIG. 1 were replotted as a function of the product of the amount of cell-associated phthalocyanine and the light fluence.
as §1, §2
Cells were irradiated at a density of approximately 2×10^6 per 25 cm^2 flask. Immediately after irradiation, the cell monolayer was treated with trypsin, and appropriate aliquots were plated in triplicate to give 100 to 200 colonies in each 10-cm Petri dish. Cell survival was determined by the ability of the cells to form colonies containing at least 50 cells. The response of cells treated with 1 μM AlPcCl and light was compared in each experiment.
Photocytotoxicity of the phthalocyanines compounds I to VI was also assessed by clonogenic assay (Table 1, FIG. 1). In all experiments, 1 μM AlPcCl was included for comparison purposes. From the survival curves (FIG. 1), the fluence reducing the cell survival to 10% (F10) was obtained. The ratio of the F10 for AlPcCl and the F10 for the test compound is recorded in Table 1.
In order to take differences in cellular uptake into consideration in the assessment of the relative efficiency of these phthalocyanines as photosensitizers of V79 cells, the survival data were replotted against the product of intracellular phthalocyanine concentration and light fluence (FIG. 2). From these curves, the product of intracellular concentration and light fluence reducing survival to 10% (CF10) was obtained, and comparisons of the values for AlPcCl and the test compounds are recorded in Table 1.

RIF-1 tumors = assay: PDT of RIF-1 implanted tumors (Table 7); type: in vivo, C3H/HeN mice; details: 1 mg/kg in corn oil; 675 nm, 135 J/cm^2
Procedure, shortened: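 C3H/HeN mice each carried one RIF-1 fibrosarcoma on the back and received 1 mg/kg phthalocyanine as a corn-oil suspension. Volume was measured daily by calipers from a 50±10 mm^3 start and calculated with the hemiellipsoid model.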

V79 cells [5] = tested on: V79 cells
Experimental: as §3

[6] = tested on: Chinese hamster fibroblasts, i.e. V79 cells
Text: Initially, applicants examined the photocytotoxicity of twenty-one phthalocyanines taken from a collection in the applicants' laboratories to Chinese hamster fibroblasts, i.e. V79 cells.

CCCCCCCCCCCC[N+](C)(C)CCC[Si](C)(C)O[Si]1(O[Si](C)(C)CCC[N+](C)(C)CCCCCCCCCCCC)n2c3c4ccccc4c2N=C2N=C(N=c4c5ccccc5c(n41)=NC1=NC(=N3)c3ccccc31)c1ccccc12 [Compound XIV, SiPc[OSi(CH3)2 (CH2)3 N^+ (CH3)2 (CH2)11 CH3]2 2I^-]
purging viruses from blood and/or blood components (viruses): effective at purging viruses from blood and/or blood components
induction of apoptosis (L5178Y cells): did not induce apoptosis
Cell survival at highest light dose at 1 µM (V79 cells [1]; Cricetulus griseus, V79, read-out: Maximum Effect (% survival)): 93%
Uptake into V79 cells (V79 cells [2]; 1 μM): 0.03 ± 0.01 n Moles/10^6 cells
Uptake into V79 cells (V79 cells [2]; 4 μM): 0.05 ± 0.01 n Moles/10^6 cells
Uptake into V79 cells, composite value (V79 cells [2]; average of all data): < 0.05 n Moles/10^6 cells/μM
Uptake (from Table 2) (V79 cells [2]; repeated in Table 3): < 0.05 n Moles/10^6 cells/μM

C[N+](C)(C)CCC[Si](C)(C)O[Si]1(O)n2c3c4ccccc4c2N=C2N=C(N=c4c5ccccc5c(n41)=NC1=NC(=N3)c3ccccc31)c1ccccc12.[I-] (stereo not drawn) [Compound V, HOSiPcOSi(CH3)2 (CH2)3 N(CH3)3^+ I^-]
purging viruses from blood and/or blood components (viruses): effective at purging viruses from blood and/or blood components
Growth Delay, efficiency relative to 1 μM AlPcCl [3]: 0
inhibition of V79 culture growth (in words) [3]: less inhibition of culture growth
induction of apoptosis (L5178Y cells): did not induce apoptosis
CF10 (AlPcCl)/CF10 (Pc) ([4]; 1.0 μM, 18 h, CF10 = intracellular concentration x fluence reducing survival to 10%): 3.0
F10 (AlPcCl)/F10 (Pc) ([4]; 1.0 μM, 18 h, F10 = fluence reducing survival to 10%): 0.59
Doubling Time of Initial Tumor Volume after PDT (RIF-1 tumors): 6 days

CCCCCCCCCCCC[N+](C)(C)CCC[Si](C)(C)[O][Al]1[n]2c3c4ccccc4c2N=C2N=C(N=c4c5ccccc5c([n]41)=NC1=NC(=N3)c3ccccc31)c1ccccc12.[I-] [Compound XXI, AlPcOSi(CH3)2 (CH2)3 N^+ (CH3)2)(CH2)11 CH3 I^-]
purging viruses from blood and/or blood components (viruses): effective at purging viruses from blood and/or blood components
Minimum Demonstrated Condition to induce apoptosis: C × F (L5178Y cells; 0.5 μM): 7.5 μm × kJ/m^2
Minimum Demonstrated Condition to induce apoptosis: Fluence (L5178Y cells; 0.5 μM): 15.0 kJ/m^2
LD 90 (V79 cells [1]; 0.5 μM, 18 h, light dose killing 90% of cells): 15 kJ/m^2
Uptake into V79 cells, composite value (V79 cells [5]): 1.3 n Moles/10^6 cells/μM
uptake by V79 cells (in words) (V79 cells [5]): taken up particulary well

C[N+](C)(C)CCC[Si](C)(C)O[Si]1(O[Si](C)(C)CCC[N+](C)(C)C)n2c3c4ccccc4c2N=C2N=C(N=c4c5ccccc5c(n41)=NC1=NC(=N3)c3ccccc31)c1ccccc12.[I-].[I-] [Compound VI, SiPc[OSi(CH3)2 (CH2)3 N(CH3)3)^+ I^- ]2]
purging viruses from blood and/or blood components (viruses): effective at purging viruses from blood and/or blood components
Growth Delay, efficiency relative to 1 μM AlPcCl [3]: 0.05
inhibition of V79 culture growth (in words) [3]: less inhibition of culture growth
induction of apoptosis (L5178Y cells): did not induce apoptosis
photosensitizing efficiency / photocytotoxicity (in words) [4]: low activity

CCN(CC)CC(O)COCCC[Si](C)(C)O[Si]1(O)n2c3c4ccccc4c2N=C2N=C(N=c4c5ccccc5c(n41)=NC1=NC(=N3)c3ccccc31)c1ccccc12 (stereo not drawn) [HOSiPcOSi(CH3)2 (CH2)3 OCH2 --CHOHCH2 N(C2 H5) 2]
photocytotoxicity (in words) [6]: excellent photocytotoxicity
uptake by V79 cells (in words) [6]: taken up efficiently by the Chinese hamster fibroblast V79 cells

Reference: patent US5484778A, “Phthalocyanine photosensitizers for photodynamic therapy and methods for their use” (priority 1993, dated 1996)
